Results as given in patent EP2057185B1, “POLYMYXIN DERIVATIVES AND USES THEREOF” (Northern Antibiotics Oy, priority 2006, dated 2008).
Bridge positions count the residues as written; N and C are the ends. Square brackets hold non-standard residues; d marks the D form. Peptide text beside a SMILES is read from it. * marks the point of attachment. Octanoyl = CCCCCCCC(=O)*; Dab = NCC[C@H](N)C(=O)O; Abu = CC[C@H](N)C(=O)O

Key:
S. marcescens ATCC8100 = assay: MIC by E-strips on Mueller-Hinton agar with or without NAB7061 (4 µg/ml); format: cell-based, Serratia marcescens
Experimental: (§1) MICs were determined by using E-strips (Biodisk Ltd., Solna, Sweden) according to the manufacturer's instructions.
(§2) The strains originated from ATCC (11 strains), CCUG (11 strains), and NCTC (The National Collection of Type Cultures, Colindale, U.K.; 2 strains). Eight strains (the F-strains) were purchased from Mobidiag Ltd., Helsinki, Finland.

A. baumannii ATCC 19606 = assay: Growth inhibition around wells on LB agar plates; format: cell-based, Acinetobacter baumannii; conditions: for Antibacterial activity 4 µg: growth inhibition area around a well containing 4 µg; for Antibacterial activity 10 µg: growth inhibition area around a well containing 10 µg
Experimental: (§3) From an overnight-grown culture of IH3080 on LB agar, a suspension of approx. 10^8 cells/ml was prepared in 0.9% NaCl. Aliquots of this suspension were then pipetted on the agar plates and the plates were gently shaken to spread the suspension evenly on the entire surface of the plate. Thereafter, the unabsorbed part of the suspension was removed by using a Pasteur pipette. After the surface had dried, small wells (diameter, 2 mm) were drilled on the plates (five wells per plate) by using a sterile sharp-edged narrow metal tube, single-use pipette tip, and vacuum suction. Samples (4 µl and 10 µl) of the peptide solution in 0.9% NaCl (at concentrations of 1 µg/ml and 0.1 µg/ml) were then pipetted to the wells and the sample fluids were allowed to absorb. Controls included 0.9% NaCl solution without the compound to be tested. The plates were then incubated for 18 h at 37°C whereafter the diameters of growth inhibition zones around each well were measured; the diameter of the well itself was […]. Finally, the diameters were converted to surface areas of growth inhibition (in square mm).
(§4) Direct antibacterial activity of twelve NAB compounds against Acinetobacter baumannii ATCC 19606 and Pseudomonas aeruginosa ATCC 27853 was tested by using the susceptibility determination method described in Example 2. Five compounds (NAB7062, NAB734, NAB737, NAB739, and NAB740) had notable activity against A. baumannii. […] The antibacterial activity of NAB739 and NAB740 were as strong as or even stronger than that of polymyxin B.

K. pneumoniae F144 = assay: MIC by E-strips on Mueller-Hinton agar with or without NAB7061 (4 µg/ml); format: cell-based, Klebsiella pneumoniae
Experimental: as §1, §2

[1] = test system: Ps. aeruginosa ATCC 27853; assay: Growth inhibition around wells on LB agar plates; format: cell-based, Pseudomonas aeruginosa; conditions: for Antibacterial activity 4 µg: growth inhibition area around a well containing 4 µg; for Antibacterial activity 10 µg: growth inhibition area around a well containing 10 µg
Experimental: as §3, §4

E. coli IH3080 [2] = assay: Growth inhibition around wells on LB plates containing rifampin (sensitization); format: cell-based, Escherichia coli; conditions: well containing 4 µg of compound; for Antibacterial activity in the presence of rifampin concn (µg/ml) of 0: plates with no rifampin; for Antibacterial activity in the presence of rifampin concn (µg/ml) of 0.1: rifampin 0.1 µg/ml; for Antibacterial activity in the presence of rifampin concn (µg/ml) of 1.0: rifampin 1.0 µg/ml
Experimental: as §3, with “Samples (4 µl and 10 µl) of the peptide solution in 0.9% NaCl (at concentrations of 1 µg/ml and 0.1 µg/ml) were then pipetted to the wells and the sample fluids were allowed to absorb.” left out, “mm). […] Louis, MO, U.S.A).” for “mm).”

K. pneumoniae ATCC13883 = test system: K. pneumoniae ATCC13883
Experimental: as §1, §2

E. cloacae ATCC23355 = test system: E. cloacae ATCC23355
Experimental: as §1, §2

E. coli IH3080 [3] = test system: E. coli IH3080
Experimental: as §1, §2

E. coli IH3080 (O18:K1) = assay: Synergistic bactericidal activity with guinea pig serum (complement); format: cell-based, Escherichia coli; conditions: none (PBS)
E. coli IH3080 [4] = assay: Growth inhibition around wells on LB agar plates; format: cell-based, Escherichia coli; conditions: 18 h at 37°C; for Antibacterial activity at 4 µg: growth inhibition area around a well containing 4 µg of compound; for Antibacterial activity at 10 µg: growth inhibition area around a well containing 10 µg of compound
Experimental: Peptides synthesized in Example 1, all carrying at least two (2) but not more than three (3) positive charges, were studied for their ability to inhibit the growth of E. coli. This was tested employing LB agar (LB Agar Lennox, Difco, BD, Sparks, MD, U.S.A) plates. The indicator organism E. coli IH3080 (K1:O18) was an encapsulated strain originally isolated from a neonate suffering from meningitis (Vaara et al. 1984) and obtained from National Public Health Institute, Helsinki, Finland.
as §3, with “Samples (4 µl and 10 µl) of the peptide solution in 0.9% NaCl (at concentrations of 1 µg/ml and 0.1 µg/ml) were then pipetted to the wells and the sample fluids were allowed to absorb.” left out

[5] = Two-week intravenous toxicity study in young rats; format: in vivo; conditions: for rise of blood urea nitrogen (BUN) over control or low dose group: 16 mg/kg/day
Experimental: Toxicity in young rats (weighing approx. 150 g in the beginning of the study) was determined by administering doses (1, 2, 4, 8, 16, and 32 mg/kg per day) of NAB7061 as well as the control compound polymyxin B intravenously twice (2) a day for two weeks. A group of ten (10) rats was studied for each dosis regimen. Clinical observations were made daily, the body weight measured twice weekly, and the food consumption twice weekly. In the end of week 2, all animals were sacrificed.
Histopathology of kidneys was performed for each animals and histopathology of all tissues was performed in three high-dose groups receiving NAB7061.

[6] = K. pneumoniae ATCC1 3883, 4 µg/ml of NAB 7061
[7] = E. cloacae ATCC23355, 4 µg/ml of NAB 7061
[8] = E. coli IH3080, 4 µg/ml of NAB 7061

Compound: CCCCCCCC(=O)N[C@H](C(=O)N[C@@H](CC)C(=O)N[C@H]1CCNC(=O)[C@H]([C@@H](C)O)NC(=O)[C@H](CCN)NC(=O)[C@H](CCN)NC(=O)[C@H](CC(C)C)NC(=O)[C@@H](Cc2ccccc2)NC(=O)[C@H](CCN)NC1=O)[C@@H](C)O [NAB 7061, OA-Thr-Abu-cy[Dab-Dab-DPhe-Leu-Dab-Dab-Thr-]] (Octanoyl-T[Abu][Dab][Dab][dF]L[Dab][Dab]T; lactam 3-C)
- Sensitization factor to clarithromycin (S. marcescens ATCC8100; 4 µg/ml of NAB 7061): <2
- Sensitization factor to rifampin (S. marcescens ATCC8100; 4 µg/ml of NAB 7061): <2
- Antibacterial activity 4 µg (A. baumannii ATCC 19606): 0 square millimeters
- Antibacterial activity 10 µg (A. baumannii ATCC 19606): 0 square millimeters
- Antibacterial activity 4 µg [1]: 0 square millimeters
- Antibacterial activity 10 µg [1]: 0 square millimeters
- Antibacterial activity in the presence of rifampin concn (µg/ml) of 0 (E. coli IH3080 [2]): 0 square millimeters
- Antibacterial activity in the presence of rifampin concn (µg/ml) of 1.0 (E. coli IH3080 [2]): 155 square millimeters
- MIC (µg/ml) of clarithromycin in the presence of 4 µg/ml of NAB 7061 (E. cloacae ATCC23355; E. cloacae ATCC23355): 0,25 - 0,75 µg/ml
- MIC (µg/ml) of rifampin in the presence of 4 µg/ml of NAB 7061 (E. cloacae ATCC23355; E. cloacae ATCC23355): 0,008 - 0,016 µg/ml
- % survival after 2-hour treatment at 37°C (E. coli IH3080 (O18:K1); NAB7061 1 µg/ml): 97%
- % survival after 2-hour treatment at 37°C (E. coli IH3080 (O18:K1); NAB7061 2 µg/ml): 97%
- % survival after 2-hour treatment at 37°C (E. coli IH3080 (O18:K1); NAB7061 4 µg/ml): 79%
- Antibacterial activity at 4 µg (E. coli IH3080 [4]): 0 square millimeters
- Antibacterial activity at 10 µg (E. coli IH3080 [4]): 50 square millimeters
- rise of blood urea nitrogen (BUN) over control or low dose group ([5]; rat, in vivo): no such a rise was found
- general pathology and histopathology of organs and kidneys ([5]; rat, in vivo, iv): No NAB7061-related pathological findings
- lowest dose that negatively influenced the body weight gain ([5]; rat, in vivo, iv): 8 mg/kg
- rise of blood urea nitrogen (BUN) ([5]; rats, 32 mg/kg per day, end of the study): 7%
- survival ([5]; rats, 1 to 32 mg/kg per day intravenously, two weeks): all rats receiving NAB7061 remained alive throughout the study

Compound: Polymyxin B
- Antibacterial activity 4 µg (A. baumannii ATCC 19606): 113 square millimeters
- Antibacterial activity 10 µg (A. baumannii ATCC 19606): 154 square millimeters
- Antibacterial activity 4 µg [1]: 95 square millimeters
- Antibacterial activity 10 µg [1]: 133 square millimeters
- Antibacterial activity in the presence of rifampin concn (µg/ml) of 0 (E. coli IH3080 [2]): 79 square millimeters
- Antibacterial activity in the presence of rifampin concn (µg/ml) of 0.1 (E. coli IH3080 [2]): 95 square millimeters
- Antibacterial activity in the presence of rifampin concn (µg/ml) of 1.0 (E. coli IH3080 [2]): 104 square millimeters
- Sensitization factor (K. pneumoniae ATCC13883; ratio of the MIC of the antibiotic in the absence of NAB 7061 to that in the presence of 4 µg/ml of NAB 7061, K. pneum. ATCC 13883): 1
- Sensitization factor (E. cloacae ATCC23355; ratio of the MIC of the antibiotic in the absence of NAB 7061 to that in the presence of 4 µg/ml of NAB 7061, E. cloacae ATCC 23355): 4
- Sensitization factor (E. coli IH3080 [3]; ratio of the MIC of the antibiotic in the absence of NAB 7061 to that in the presence of 4 µg/ml of NAB 7061, E. coli IH 3080): 2
- Antibacterial activity at 4 µg (E. coli IH3080 [4]): 79 square millimeters
- Antibacterial activity at 4 µg (E. coli IH3080 [4]; listed as Polymyxin B sulfate): 95 square millimeters
- Antibacterial activity at 10 µg (E. coli IH3080 [4]): 133 square millimeters
- rise of blood urea nitrogen (BUN) over control or low dose group ([5]; rat, in vivo): 15%
- mortality ([5]; rats, 32 mg/kg per day intravenously, two weeks): 100%
